A word on the IC50: it is the concentration needed to halve the response being measured.

Test [1] addresses T1, PfODC (bifunctional P. falciparum AdoMetDC/ODC) (Plasmodium falciparum, UniProt Q8IJ77).
T1 construct: gene PF3D7_1033100; recombinant bifunctional P. falciparum AdoMetDC/ODC, strep tag
T1 sequence (Q8IJ77 1-72): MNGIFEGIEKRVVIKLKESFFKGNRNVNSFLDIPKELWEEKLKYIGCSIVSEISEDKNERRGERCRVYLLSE
T1 sequence (Q8IJ77 73-1434): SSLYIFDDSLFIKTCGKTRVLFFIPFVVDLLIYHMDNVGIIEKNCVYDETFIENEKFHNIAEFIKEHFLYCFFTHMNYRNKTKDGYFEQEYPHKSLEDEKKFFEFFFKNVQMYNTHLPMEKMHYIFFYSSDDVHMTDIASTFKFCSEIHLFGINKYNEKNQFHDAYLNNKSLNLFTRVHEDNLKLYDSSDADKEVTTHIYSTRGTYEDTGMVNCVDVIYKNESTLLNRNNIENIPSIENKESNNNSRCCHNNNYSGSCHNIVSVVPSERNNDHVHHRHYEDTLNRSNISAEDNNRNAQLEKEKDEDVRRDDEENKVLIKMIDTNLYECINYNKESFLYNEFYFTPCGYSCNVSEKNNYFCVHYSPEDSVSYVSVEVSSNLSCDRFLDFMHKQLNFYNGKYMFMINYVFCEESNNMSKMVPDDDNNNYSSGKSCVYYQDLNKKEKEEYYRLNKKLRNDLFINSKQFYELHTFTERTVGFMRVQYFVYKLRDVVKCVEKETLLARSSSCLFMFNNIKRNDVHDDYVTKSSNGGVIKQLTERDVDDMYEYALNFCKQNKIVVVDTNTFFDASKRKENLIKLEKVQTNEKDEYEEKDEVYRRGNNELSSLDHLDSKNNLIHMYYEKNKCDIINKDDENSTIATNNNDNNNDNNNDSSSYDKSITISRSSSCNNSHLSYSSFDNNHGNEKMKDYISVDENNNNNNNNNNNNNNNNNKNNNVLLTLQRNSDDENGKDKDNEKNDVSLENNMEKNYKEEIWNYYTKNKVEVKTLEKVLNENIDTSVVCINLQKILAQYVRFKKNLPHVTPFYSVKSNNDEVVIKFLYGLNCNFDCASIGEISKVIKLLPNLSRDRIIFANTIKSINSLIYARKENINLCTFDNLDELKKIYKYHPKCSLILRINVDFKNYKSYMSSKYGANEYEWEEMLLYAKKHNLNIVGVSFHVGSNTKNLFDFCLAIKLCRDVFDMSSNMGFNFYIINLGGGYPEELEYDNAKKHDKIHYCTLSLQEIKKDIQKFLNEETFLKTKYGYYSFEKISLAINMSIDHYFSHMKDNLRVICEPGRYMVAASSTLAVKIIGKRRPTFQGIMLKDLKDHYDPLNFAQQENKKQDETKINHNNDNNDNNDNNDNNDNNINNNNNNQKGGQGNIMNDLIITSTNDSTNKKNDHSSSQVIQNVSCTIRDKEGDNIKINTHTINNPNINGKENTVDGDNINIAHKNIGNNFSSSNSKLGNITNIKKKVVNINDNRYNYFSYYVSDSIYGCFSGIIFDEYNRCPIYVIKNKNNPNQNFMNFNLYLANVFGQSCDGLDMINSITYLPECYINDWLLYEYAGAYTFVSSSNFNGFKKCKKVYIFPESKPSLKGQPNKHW
The test can be described thus: […]CO2 release from […]-L-ornithine by recombinant PfODC/AdoMetDC with […] PLP. The test is classed as biochemical. The note with it: read-out: Inhibition of PfODC activity IC50-value [μM] ^a).

Test [2] has as its target T2, PfPdxK (pyridoxine/pyridoxal kinase) (Plasmodium falciparum, UniProt C6KT01).
T2 construct: gene PF3D7_0616000; recombinant, strep tag
Briefly: kinase assay with [γ-33P]-ATP, recombinant purified PfPdxK, specific activity. The test is classed as biochemical.

T2 sequence (C6KT01 entry or part of it): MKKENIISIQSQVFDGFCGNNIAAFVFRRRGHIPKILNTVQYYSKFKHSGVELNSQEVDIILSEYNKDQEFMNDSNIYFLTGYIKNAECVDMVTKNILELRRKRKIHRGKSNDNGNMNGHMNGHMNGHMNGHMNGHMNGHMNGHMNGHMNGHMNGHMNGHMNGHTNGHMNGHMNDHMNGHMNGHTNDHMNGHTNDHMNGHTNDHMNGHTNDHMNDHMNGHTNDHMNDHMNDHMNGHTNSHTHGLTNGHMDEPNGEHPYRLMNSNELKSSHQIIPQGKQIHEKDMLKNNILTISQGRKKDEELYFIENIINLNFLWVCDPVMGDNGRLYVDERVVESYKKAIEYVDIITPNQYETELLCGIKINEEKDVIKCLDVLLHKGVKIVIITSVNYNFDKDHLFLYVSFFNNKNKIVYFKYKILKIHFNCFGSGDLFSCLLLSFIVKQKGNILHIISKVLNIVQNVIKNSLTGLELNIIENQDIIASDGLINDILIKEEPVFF

Turning to `COC(=O)C(Cc1c[nH]c2ccccc12)NCc1c(COP(=O)(O)O)cnc(C)c1O` (centres unmarked) [PPT5], in test [1], the IC50 amounted to 64 ± 13 µM.

On to `COC(=O)C(Cc1c[nH]c2ccccc12)NCc1c(CO)cnc(C)c1O` (centres unmarked) [PT5], for which, in test [2], the “Specific activity of PfPdxK (nmol min^-1 mg^-1) ^a)” value (“Specific activity of PfPdxK” below) came to 20 ± 2 nmol/min/mg. With `COC(=O)C(Cc1c[nH]cn1)NCc1c(CO)cnc(C)c1O` (centres unmarked) [PHME], in test [2], the “Specific activity of PfPdxK” value stood at 64 ± 4 nmol/min/mg.

Take `COC(=O)[C@@H]1Cc2c([nH]c3ccccc23)[C@H](c2c(CO)cnc(C)c2O)N1` [PT3]: the “Specific activity of PfPdxK” value in test [2] is 38 ± 4 nmol/min/mg.

As to `COC(=O)C(Cc1c[nH]cn1)NCc1c(COP(=O)(O)O)cnc(C)c1O` (centres unmarked) [PPHME], the IC50 in test [1] came to 58 ± 11 µM.
